# Values quoted from earlier work, collected in patent US5780243A, “Methods for the quantitative analysis of organic compounds” (Thaco Research, Ltd., priority 1996, dated 1998).
smiles,measurement,value
"CNC1C(O)C(NC)C2OC3(O)C(=O)CC(C)OC3OC2C1O (stereo not shown) [spectinomycin, decahydro-4a,7,9-trihydroxy-2-methyl-6,8-bis(methylamino)-4H-pyrano[2,3-b][1,4]benzodioxin-4-one]",solubility in organic solvents,virtual insolubility
